According to patent US9453031B2, “Chemical entities” (Fundación Centro Nacional de Investigaciones Oncológicas …, priority 2013, dated 2016):

Legend:
ATR = ATR (Homo sapiens (Human), UniProt Q13535); assay: Cellular ATR inhibition, western blot of CHK1(S345) phosphorylation in hydroxyurea treated cells; assay type: cell-based; conditions: HT29 cells
Description: In addition to the selective system described above, Example compounds presented here were screened for their ability to inhibit intracellular ATR using a western blot assay to detect phosphorylation of the ATR substrate CHK1(S345) in hydroxyurea treated cells. HT29 cells are plated at 500,000 cells per well in 6-well plates in RPMI media (Sigma R6504) supplemented with 10% foetal bovine serum (Sigma F7524), Penicillin/Streptomycin solution diluted 1:100 (Gibco 15070-063), and fungizone (Gibco, 15290-018), and allowed to adhere overnight at 37° C. in 5% CO2. Compounds are then added to the cell media from a final concentration of 10 μM in 3-fold serial dilutions and the cells are incubated at 37° C. in 5% CO2. After 15 min, hydroxyurea (Sigma H8627) is added to a final concentration of 2.5 mM. After 30 min of treatment with hydroxyurea, the cells are washed in PBS, lysed adding 50 μl of in protein lysis buffer (50 mM Tris pH 7.5, 150 mM NaCl, 1% IGEPAL CO-630 (Sigma, Ref. 542334-100G-A), Phospho Stop (Roche, Ref. 04906837001) and Complete Mini EDTA free (Roche, Ref. 11836170001)). The protein content of the lysates was determined by the modified method of Bradford (Sigma, Ref. B6916). The proteins were resolved by SDS-PAGE and transferred to nitrocellulose membrane (VWR International Eurolab, Ref. 732-4007). The membranes were incubated overnight at 4° C. with antibodies specific for total CHK1 (Santa Cruz Biotechnology, sc-8404), phosphoserine-345 CHK1 (Cell Signaling Technology #2348) they were washed and then incubated with IRDye800 conjugated anti-mouse (Pierce/Cultek, 35521) and Alexa Fluor 680 goat anti-rabbit IgG secondary antibodies (Invitrogen, A21076). The bands were visualized and quantified using an Odyssey infrared imaging system (Li-Cor Biosciences). The percentage of phosphorylated CHK1 vs total CHK1 in cells treated with hydroxyurea was taken as hundred percent of phosphorylation. The percentage of CHK1 phosphorylation is finally plotted against concentration for each compound and EC50s for intracellular ATR inhibition are calculated using ActivityBase from IDBS.

PI3K (p110α/p85α) = PI3K (p110α/p85α) (Homo sapiens (Human), UniProt P42336); assay: PI3K alpha activity assay (ADP Hunter Plus); assay type: biochemical; conditions: 50 μM ATP, 30 μM PIP2; read-out: PI3Kα IC50
Description: The kinase activity was measured by using the commercial ADP Hunter™ Plus assay available from DiscoveRx (#33-016), which is a homogeneous assay to measure the accumulation of ADP, a universal product of kinase activity. […] The reaction was carried out for 1 hour at 25° C. Reagent A and B were sequentially added to the wells and plates were incubated for 30 min at 37° C. Fluorescence counts were read in a Victor instrument (Perkin Elmer) with the recommended settings (544 and 580 nm as excitation and emission wavelengths, respectively).

mTOR = mTOR (Homo sapiens (Human), UniProt P42345); assay: mTOR activity assay (LanthaScreen); assay type: biochemical
Description: The enzymatic mTOR activity was measured using a LanthaScreen™ kinase activity assay (Invitrogen). The enzyme was purchased from Invitrogen (PV4754), as well as the GFP-labelled substrate (4EBP1-GFP; PV4759) and the Tb-antip4EBP1(pThr46) antibody (PV4757). The assay was performed in 50 Mm HEPES buffer, pH 7.5, containing 1.5 mM MnCl2, 10 mM MgCl2, 1 mM EGTA, 2.5 mM DTT and 0.01% Tween-20. The concentration of the assay components were the following: 0.24 nM mTOR kinase, 400 nM 4EBP1-GFP, […] and serial dilutions of the compound (inhibitor) to be evaluated. After 1 h incubation at room temperature, 20 mM EDTA was used to stop the reaction and terbium-labelled antibody (4 nM) added to detect phosphorylated product. The antibody associates with the phosphorylated product resulting in an increased TR-FRET value. The TR-FRET value (a dimensionless number) was calculated as the ratio of the acceptor signal (GFP, emission at 520 nm) to the donor signal (terbium, emission at 495 nm).

DNA-PK = DNA-PK (Homo sapiens (Human), UniProt P78527); assay: DNAPK activity assay (ADP Hunter Plus); assay type: biochemical; conditions: 75 μM ATP
Description: The kinase activity was measured by using the commercial ADP Hunter™ Plus assay available from DiscoveRx (#90-0083), which is a homogeneous assay to measure the accumulation of ADP, a universal product of kinase activity. The enzyme, DNA-PK was purchased from Promega (#V5811). The assay was done following the manufacturer recommendations with slight modifications: Mainly the kinase buffer was replace by 15 mM HEPES, pH 7.5, 10 mM MgCl2, 20 mM NaCl, 1 mM EGTA, 0.1 mg/mL BGG, 0.02% Tween 20. The DNA-PK was assayed in a titration experiment to determine the optimal protein concentration for the inhibition assay. To calculate the […] of the Compounds, serial 1:3 dilutions of the compounds were added to the enzyme at a fixed concentration (2 U/μL). The enzyme was preincubated with the inhibitor and 200 μM DNA substrate and then ATP was added to a final 75 μM concentration. Reaction was carried out for 1 hour at 37° C. Reagent A and B were sequentially added to the wells and plates were incubated for 30 min at RT. Fluorescence counts were read in a EnVision instrument (Perkin Elmer) with the recommended settings (550 and 590 nm as excitation and emission wavelengths, respectively).

Chain of mTOR (P42345 1360-2549): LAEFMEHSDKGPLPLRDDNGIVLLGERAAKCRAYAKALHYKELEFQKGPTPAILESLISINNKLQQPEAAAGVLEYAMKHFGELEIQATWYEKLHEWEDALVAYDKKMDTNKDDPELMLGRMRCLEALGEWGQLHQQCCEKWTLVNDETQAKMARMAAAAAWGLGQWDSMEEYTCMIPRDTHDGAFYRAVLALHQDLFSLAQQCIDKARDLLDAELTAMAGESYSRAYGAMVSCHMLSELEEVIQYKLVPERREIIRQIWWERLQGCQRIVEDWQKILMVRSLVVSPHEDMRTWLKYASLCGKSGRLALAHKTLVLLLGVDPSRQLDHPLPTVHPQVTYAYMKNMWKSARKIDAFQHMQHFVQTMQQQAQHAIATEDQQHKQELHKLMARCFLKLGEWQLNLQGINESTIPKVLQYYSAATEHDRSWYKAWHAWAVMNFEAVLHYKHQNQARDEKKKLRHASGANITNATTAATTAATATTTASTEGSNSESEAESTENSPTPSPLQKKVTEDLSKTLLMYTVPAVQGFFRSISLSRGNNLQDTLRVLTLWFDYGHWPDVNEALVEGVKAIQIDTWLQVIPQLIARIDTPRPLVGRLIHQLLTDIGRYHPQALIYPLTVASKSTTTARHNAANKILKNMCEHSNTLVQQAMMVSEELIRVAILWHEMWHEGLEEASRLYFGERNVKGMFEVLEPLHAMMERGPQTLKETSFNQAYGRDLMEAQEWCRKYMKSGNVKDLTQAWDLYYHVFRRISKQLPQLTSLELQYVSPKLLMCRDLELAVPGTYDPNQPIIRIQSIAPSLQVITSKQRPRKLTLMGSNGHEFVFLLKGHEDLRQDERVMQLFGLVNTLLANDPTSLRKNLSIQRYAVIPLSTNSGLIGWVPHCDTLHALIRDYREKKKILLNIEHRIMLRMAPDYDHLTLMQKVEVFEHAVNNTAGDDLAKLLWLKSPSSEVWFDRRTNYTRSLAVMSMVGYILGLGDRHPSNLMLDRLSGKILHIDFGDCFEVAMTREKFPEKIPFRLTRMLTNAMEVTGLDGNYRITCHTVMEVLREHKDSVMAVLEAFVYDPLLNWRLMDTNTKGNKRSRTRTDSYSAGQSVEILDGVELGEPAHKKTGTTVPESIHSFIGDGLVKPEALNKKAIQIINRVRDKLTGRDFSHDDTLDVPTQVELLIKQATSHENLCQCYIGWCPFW
Chain of PI3K (p110α/p85α) (P42336 whole entry): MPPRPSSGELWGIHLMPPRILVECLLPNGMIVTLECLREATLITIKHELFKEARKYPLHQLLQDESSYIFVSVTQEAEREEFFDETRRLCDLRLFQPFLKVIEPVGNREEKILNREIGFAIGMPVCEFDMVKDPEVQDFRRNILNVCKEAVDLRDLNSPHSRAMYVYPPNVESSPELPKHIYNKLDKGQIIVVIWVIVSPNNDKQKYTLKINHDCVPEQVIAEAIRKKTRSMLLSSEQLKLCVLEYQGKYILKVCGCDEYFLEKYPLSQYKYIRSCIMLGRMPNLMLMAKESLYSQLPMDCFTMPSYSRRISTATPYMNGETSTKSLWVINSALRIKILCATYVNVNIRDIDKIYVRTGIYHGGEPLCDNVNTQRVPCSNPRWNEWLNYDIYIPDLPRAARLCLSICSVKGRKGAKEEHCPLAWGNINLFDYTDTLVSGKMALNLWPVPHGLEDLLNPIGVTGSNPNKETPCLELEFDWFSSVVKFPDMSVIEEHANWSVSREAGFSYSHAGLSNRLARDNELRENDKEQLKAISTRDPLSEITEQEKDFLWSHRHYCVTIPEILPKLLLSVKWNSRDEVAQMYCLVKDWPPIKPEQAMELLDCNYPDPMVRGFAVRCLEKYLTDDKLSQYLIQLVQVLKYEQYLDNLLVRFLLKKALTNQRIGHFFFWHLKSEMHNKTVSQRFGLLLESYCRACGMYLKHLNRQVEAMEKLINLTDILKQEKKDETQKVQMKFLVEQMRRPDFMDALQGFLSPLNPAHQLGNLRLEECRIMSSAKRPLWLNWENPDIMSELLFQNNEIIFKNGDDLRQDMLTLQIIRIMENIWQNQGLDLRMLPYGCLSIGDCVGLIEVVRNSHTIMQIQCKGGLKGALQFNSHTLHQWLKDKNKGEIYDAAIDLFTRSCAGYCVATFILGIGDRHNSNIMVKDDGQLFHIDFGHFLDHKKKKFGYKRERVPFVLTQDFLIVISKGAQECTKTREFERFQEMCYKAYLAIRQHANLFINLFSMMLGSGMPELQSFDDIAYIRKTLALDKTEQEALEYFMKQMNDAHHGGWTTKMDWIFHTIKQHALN
Chain of PI3K (p110α/p85α) (P27986 whole entry partner): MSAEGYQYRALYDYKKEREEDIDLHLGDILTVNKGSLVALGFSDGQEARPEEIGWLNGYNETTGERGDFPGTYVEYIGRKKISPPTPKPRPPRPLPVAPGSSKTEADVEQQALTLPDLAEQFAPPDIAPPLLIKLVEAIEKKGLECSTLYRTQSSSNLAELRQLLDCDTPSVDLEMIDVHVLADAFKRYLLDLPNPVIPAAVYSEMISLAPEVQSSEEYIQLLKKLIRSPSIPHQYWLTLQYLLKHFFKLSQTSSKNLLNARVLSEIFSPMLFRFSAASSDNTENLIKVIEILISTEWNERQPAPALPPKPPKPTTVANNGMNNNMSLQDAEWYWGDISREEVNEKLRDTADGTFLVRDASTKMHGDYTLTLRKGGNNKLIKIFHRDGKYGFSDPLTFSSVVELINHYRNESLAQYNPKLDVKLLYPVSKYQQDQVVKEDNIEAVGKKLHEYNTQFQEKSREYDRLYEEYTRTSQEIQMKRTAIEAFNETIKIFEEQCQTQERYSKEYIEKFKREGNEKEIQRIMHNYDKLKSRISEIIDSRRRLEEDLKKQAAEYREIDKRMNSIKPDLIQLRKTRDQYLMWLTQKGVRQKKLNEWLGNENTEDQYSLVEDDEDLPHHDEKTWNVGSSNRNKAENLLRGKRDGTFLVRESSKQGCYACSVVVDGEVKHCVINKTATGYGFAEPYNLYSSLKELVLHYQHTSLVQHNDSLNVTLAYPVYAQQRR

| SMILES | EC50 (ATR; hydroxyurea 2.5 mM) | IC50 (PI3K (p110α/p85α)) | IC50 (mTOR) | IC50 (DNA-PK) | EC50 (ATR; hydroxyurea […]) |
| --- | --- | --- | --- | --- | --- |
| CS(=O)(=O)C1(c2nc(-c3ccc(F)c4[nH]ccc34)nc3c2OC[C@@H]2COCCN32)CCOCC1 [Example 106] | > 1000 nM | 50000 nM | 10000 nM | 1160 nM |  |
| CNc1nc2cc(F)ccc2n1-c1nc2c(c(C(C)(C)S(C)(=O)=O)n1)OC[C@@H]1COCCN21 [Example 82] |  | 5600 nM | 1590 nM | 10000 nM | 100 to 1000 nM |
| CNc1nc2cc(F)ccc2n1-c1nc2c(c(C3(S(C)(=O)=O)CCC3)n1)OC[C@@H]1COCCN21 [Example 96] |  | 50000 nM | 6080 nM | 10000 nM | 100 to 1000 nM |
| CC(C)(c1nc(-c2cccc3[nH]ccc23)nc2c1OC[C@H]1COCCN21)S(C)(=O)=O [Example 15] | 100 to 1000 nM | 1100 nM | 851 nM | 2860 nM |  |
| CNc1nc2ccc(C#N)cc2n1-c1nc2c(c(C(C)(C)S(C)(=O)=O)n1)OC[C@@H]1COCCN21 [Example 114] |  | 50000 nM | 10000 nM | 10000 nM | > 1000 nM |
| CS(=O)(=O)C1(c2nc(-c3cccc4[nH]ccc34)nc3c2OC[C@@H]2COCCN32)CC1 [Example 6] | 100 to 1000 nM | 4500 nM | 558 nM | 4520 nM |  |
| CC(C)(c1nc(-c2c(F)ccc3[nH]ccc23)nc2c1OC[C@H]1COCCN21)S(C)(=O)=O [Example 26] | > 1000 nM | 2700 nM | 10000 nM | 10000 nM |  |
| CS(=O)(=O)C1(c2nc(-c3cc(F)cc4[nH]ccc34)nc3c2OC[C@@H]2COCCN32)CC1 [Example 74] | 100 to 1000 nM | 2240 nM | 152 nM | 989 nM |  |
| CC(C)(O)c1nc(-c2cccc3[nH]ccc23)nc2c1OC[C@@H]1COCCN21 [Example 44] | 100 to 1000 nM | 1180 nM | 44 nM | 3060 nM |  |
| CC(C)(c1nc(-c2cccc3[nH]ccc23)nc2c1OC[C@@H]1COCCN21)S(=O)(=O)C1CC1 [Example 61] | 100 to 1000 nM | 3220 nM | 228 nM | 10000 nM |  |
| CS(=O)(=O)C1(c2nc(-c3cc(C(F)(F)F)cc4[nH]ccc34)nc3c2OC[C@@H]2COCCN32)CCOCC1 [Example 105] | 100 to 1000 nM | 28900 nM | 1990 nM | 10000 nM |  |
| CS(=O)(=O)C1(c2nc(-c3cccc4[nH]ccc34)nc3c2OCC[C@H]2COCCN32)CCOCC1 [Example 23] | 100 to 1000 nM | 50000 nM | 10000 nM | 6370 nM |  |
| CC(C)(c1nc(-n2c(N)nc3ccccc32)nc2c1OC[C@@H]1COCCN21)S(C)(=O)=O [Example 70] |  | 870 nM | 226 nM | 741 nM | 100 to 1000 nM |
| CNc1nc2ccc(Cl)cc2n1-c1nc2c(c(C3(S(C)(=O)=O)CC3)n1)OC[C@@H]1COCCN21 [Example 87] |  | 50000 nM | 10000 nM | 210 nM | > 1000 nM |
| CC(C)(c1nc(-n2c(N3CCOCC3)nc3ccccc32)nc2c1OC[C@@H]1COCCN21)S(C)(=O)=O [Example 73] |  | 50000 nM | 10000 nM | 10000 nM | > 1000 nM |
| Cc1cc2c(-c3nc4c(c(C5(S(C)(=O)=O)CCC5)n3)OC[C@@H]3COCCN43)cccc2[nH]1 [Example 93] | 100 to 1000 nM | 7440 nM | 117 nM | 10000 nM |  |
| CS(=O)(=O)C1(c2nc(-c3cc(F)cc4[nH]ccc34)nc3c2OC[C@@H]2COCCN32)CCOCC1 [Example 28] | < 100 nM | 4700 nM | 785 nM | 25000 nM |  |
| CNc1nc2ccccc2n1-c1nc2c(c(C3(S(C)(=O)=O)CC3)n1)OC[C@@H]1COCCN21 [Example 66] | 100 to 1000 nM | 7170 nM | 854 nM | 2410 nM |  |
| COc1cc(-c2nc3c(c(C4(S(C)(=O)=O)CCOCC4)n2)OC[C@@H]2COCCN32)c2cc[nH]c2c1 [Example 29] | < 100 nM | 3800 nM | 435 nM | 25000 nM |  |
| Cc1cc2c(-c3nc4c(c(C(C)(C)S(C)(=O)=O)n3)OC[C@@H]3COCCN43)cccc2[nH]1 [Example 103] | 100 to 1000 nM | 3160 nM | 58 nM | 10000 nM |  |
| CS(=O)(=O)C1(c2nc(-c3ccc(F)c4[nH]ccc34)nc3c2OC[C@@H]2COCCN32)CC1 [Example 110] | > 1000 nM | 50000 nM | 10000 nM | 10000 nM |  |
| CS(=O)(=O)C1(c2nc(-c3cc(F)cc4[nH]ccc34)nc3c2OC[C@@H]2COCCN32)CCC1 [Example 77] | < 100 nM | 5360 nM | > 10000 nM | 10000 nM |  |
| Cc1cc2c(-c3nc4c(c(C5(S(C)(=O)=O)CC5)n3)OC[C@@H]3COCCN43)cccc2[nH]1 [Example 109] | 100 to 1000 nM | 5690 nM | 224 nM | 10000 nM |  |
| CS(=O)(=O)C1(c2nc(-c3cc(C(F)(F)F)cc4[nH]ccc34)nc3c2OC[C@@H]2COCCN32)CC1 [Example 108] | 100 to 1000 nM | 15400 nM | 579 nM | 1750 nM |  |
